Test [1] has as its target Recombinant human EIF2AK3 (PERK) catalytic domain (amino acids 536-1116) (Homo sapiens (Human), UniProt Q9NZJ5). Nature of the test: PERK In Vitro Activity Assay (isolated), TR-FRET kinase assay. To be noted: isolated PERK enzyme, 1.5 μM ATP, read-out: Biochemical IC50. The method in brief:
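Recombinant PERK catalytic domain was incubated with 100–200 nM GFP-eIF2a substrate in 50 mM HEPES pH 7.5, 10 mM MgCl2, 1.0 mM EGTA and 0.01% Brij-35 for 45 min at room temperature. After a 10 mM EDTA stop, 2 nM Tb-anti-phospho-eIF2a was added for 90 min, and IC50 was fitted from TR-FRET ratios by 4-parameter logistic regression.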
In general terms: In TR-FRET formats the signal depends on donor and acceptor labels being close together.

Test [2] has as its system eIF2α in HEK293-EGFP-eIF2α cells. The test is described as follows: PERK Cellular Assay (HEK293-EGFP-eIF2α cells, tunicamycin-induced ER stress, TR-FRET). It counts as cell-based. Conditions: tunicamycin 2 hours. In a few lines:
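Cells pre-incubated with inhibitor 30 min at 37 °C, then ER stress induced with […] tunicamycin for 2 h. TR-FRET read on lysates; ratio normalized to DMSO control as percent inhibition over a 10-point, 3-fold dilution series; IC50 from 4-parameter logistic fit.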

The IC50 is the point on the concentration scale where inhibition reaches its midpoint.

Recombinant human EIF2AK3 (PERK) catalytic domain (amino acids 536-1116), sequence (Q9NZJ5 536-1116): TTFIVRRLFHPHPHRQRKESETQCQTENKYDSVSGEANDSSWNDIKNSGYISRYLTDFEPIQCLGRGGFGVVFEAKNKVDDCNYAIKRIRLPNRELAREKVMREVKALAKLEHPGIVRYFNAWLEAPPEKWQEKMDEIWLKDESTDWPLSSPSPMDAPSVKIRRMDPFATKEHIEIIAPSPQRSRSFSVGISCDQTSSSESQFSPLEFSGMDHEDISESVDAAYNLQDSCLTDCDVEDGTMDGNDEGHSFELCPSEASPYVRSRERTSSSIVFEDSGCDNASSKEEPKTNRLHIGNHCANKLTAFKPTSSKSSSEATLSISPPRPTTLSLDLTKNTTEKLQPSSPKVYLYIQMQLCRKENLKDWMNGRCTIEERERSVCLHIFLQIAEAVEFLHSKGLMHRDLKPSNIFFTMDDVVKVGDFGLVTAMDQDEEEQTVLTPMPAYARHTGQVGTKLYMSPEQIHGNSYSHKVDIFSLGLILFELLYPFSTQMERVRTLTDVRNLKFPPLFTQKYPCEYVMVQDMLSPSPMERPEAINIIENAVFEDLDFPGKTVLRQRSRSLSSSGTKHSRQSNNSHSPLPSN

In the case of `[2H]C([2H])([2H])c1nc(-c2cnc(NC(=O)C(O)c3cccc(C(F)(F)F)c3)cc2C)c2c(N)nc(C)cn12` (stereo not shown) [Example 183, N-[5-[8-amino-6-methyl-3-(trideuteriomethyl)imidazo[1,5-a]pyrazin-1-yl]-4-methyl-2-pyridyl]-2-hydroxy-2-[3-(tnfluoromethyl)phenyl]acetamide], the values for the IC50 in test [1] and in test [2] were 251 to 500 nM and 2000 to 3000 nM, respectively.

In the case of `[2H]C([2H])([2H])c1nc(-c2ccc(NC(=O)C(O)c3cccc(Cl)c3)c(F)c2F)c2c(N)ncc(C)n12` (stereo not shown) [Example 138, N-[4-[8-amino-5-methyl-3-(trideuteriomethyl)imidazo[1,5-a]pyrazin-1-yl]-2,3-difluoro-phenyl]-2-(3-chloro-phenyl)-2-hydroxy-acetamide], the IC50 in test [1] and in test [2] was 1 to 25 nM throughout.

`[2H]C([2H])([2H])c1nc(-c2ccc(NC(=O)C(O)c3cc(F)cc(C(F)(F)F)c3)cc2C)c2c(N)nc(C)cn12` (stereo not shown) [Example 52, N-[4-[8-amino-6-methyl-3-(trideuteriomethyl)imidazo[1,5-a]pyrazin-1-yl]-3-methyl-phenyl]-2-[3-fluoro-5-(trifluoromethyl)phenyl]-2-hydroxy-acetamide]: the IC50 lay in the range of 1 to 25 nM in test [1] and 26 to 50 nM in test [2].

Turning to `[2H]C([2H])([2H])c1nc(-c2ccc(NC(=O)C(O)c3cccc(C(F)(F)F)c3)c(F)c2F)c2c(N)ncc(C)n12` (stereo not shown) [Example 146, N-[4-[8-amino-5-methyl-3-(trideuteriomethyl)imidazo[1,5-a]pyrazin-1-yl]-2,3-difluoro-phenyl]-2-hydroxy-2-[3-(trifluoromethyl)phenyl]acetamide], the IC50 in test [1] and in test [2] was 1 to 25 nM in each case.

Consider `[2H]C([2H])([2H])c1nc(-c2ccc(NC(=O)C(O)c3cccc(F)c3)c(F)c2)c2c(N)ncc(C)n12` (stereo not shown) [Example 122, N-[4-[8-amino-5-methyl-3-(trideuteriomethyl)imidazo[1,5-a]pyrazin-1-yl]-2-fluoro-phenyl]-2-(3-fluorophenyl)-2-hydroxy-acetamide], for which the IC50 in test [1] is 26 to 50 nM; in test [2], 251 to 500 nM.

Turning to `[2H]C([2H])([2H])c1nc(-c2ccc(NC(=O)C(O)c3cccc(F)c3)cc2C)c2c(N)ncc(C(F)(F)F)n12` (stereo not shown) [Example 30, N-[4-[8-amino-3-(trideuteriomethyl)-5-(trifluoromethyl)imidazo[1,5-a]pyrazin-1-yl]-3-methyl-phenyl]-2-(3-fluorophenyl)-2-hydroxy-acetamide], the IC50 in test [1] and in test [2] was 1 to 25 nM each time.

For `Cc1c(-c2nc(C)n3c(C)cnc(N)c23)ccc(NC(=O)C(O)c2cccc(F)c2)c1F` (stereo not shown) [Example 168, N-(4-(8-amino-3,5-dimethyl-imidazo[1,5-a]pyrazin-1-yl)-2-fluoro-3-methyl-phenyl)-2-(3-fluorophenyl)-2-hydroxy-acetamide], the values for the IC50 in test [1] and in test [2] were 1 to 25 nM and 251 to 500 nM, respectively.

Take `[2H]C([2H])([2H])c1nc(-c2ccc(NC(=O)C(O)c3cccc(F)c3)c(F)c2F)c2c(N)ncc(C(F)(F)F)n12` (stereo not shown) [Example 134, N-[4-[8-amino-3-(trideuteriomethyl)-5-(trifluoromethyl)imidazo[1,5-a]pyrazin-1-yl]-2,3-difluoro-phenyl]-2-(3-fluorophenyl)-2-hydroxy-acetamide]: the IC50 in test [1] and in test [2] was 1 to 25 nM in each case.

Turning to `Cc1cccc(C(O)C(=O)Nc2ccc(-c3nc(C)n4c(C)cnc(N)c34)c(F)c2)c1` (stereo not shown) [Example 89, N-(4-(8-amino-3,5-dimethylimidazo [1,5-a]pyrazin-1-yl)-3-fluoro-phenyl)-2-hydroxy-2-(m-tolyl)acetamide], the IC50 in test [1] was in the range of 1 to 25 nM; in test [2], 51 to 100 nM.

`[2H]C([2H])([2H])c1nc(-c2ccc(NC(=O)C(O)c3cc(F)cc(F)c3)cc2F)c2c(N)ncc(Cl)n12` (stereo not shown) [Example 108, N-[4-[8-amino-5-chloro-3-(trideuteriomethyl)imidazo[1,5-a]pyrazin-1-yl]-3-fluoro-phenyl]-2-(3,5-difluoro-phenyl)-2-hydroxy-acetamide]: the IC50 in test [1] and in test [2] (2 h) was 1 to 25 nM in each case.

`[2H]C([2H])([2H])c1nc(-c2ccc(NC(=O)C(O)c3cc(F)cc(F)c3)cc2F)c2c(N)ncc(C(F)(F)F)n12` (stereo not shown) [Example 106, N-[4-[8-amino-3-(trideuteriomethyl)-5-(trifluoromethyl)imidazo[1,5-a]pyrazin-1-yl]-3-fluoro-phenyl]-2-(3,5-difluoro-phenyl)-2-hydroxy-acetamide]: the IC50 in test [1] and in test [2] was 1 to 25 nM throughout.

Take `Cc1cnc(N)c2c(-c3ccc(NC(=O)C(O)c4cccc(F)c4)cc3F)nc(C)n12` (stereo not shown) [Example 70, N-(4-(8-amino-3,5-dimethylimidazo [1,5-a]pyrazin-1-yl)-3-fluorophenyl)-2-(3-fluorophenyl)-2-hydroxy-acetamide]: the IC50 in test [1] and in test [2] was 1 to 25 nM in each case.

Regarding `[2H]C([2H])([2H])c1nc(-c2ccc(NC(=O)C(O)c3cccc(C(F)(F)F)c3)cc2C)c2c(N)ncc(C(F)(F)F)n12` (stereo not shown) [Example 21, N-[4-[8-amino-3-(trideuteriomethyl)-5-(trifluoromethyl)imidazo[1,5-a]pyrazin-1-yl]-3-methyl-phenyl]-2-hydroxy-2-[3-(trifluoromethyl)phenyl]acetamide], the IC50 in test [1] is 51 to 100 nM; in test [2], 501 to 1000 nM.

For the compound `Cc1cc(NC(=O)C(O)c2cccc(F)c2)ccc1-c1nc(C)n2c(Cl)cnc(N)c12` (stereo not shown) [Example 29, N-(4-(8-amino-5-chloro-3-methylimidazo[1,5-a]pyrazin-1-yl)-3-methylphenyl)-2-(3-fluorophenyl)-2-hydroxyacetamide], the IC50 in test [1] lay in the range of 1 to 25 nM; in test [2], 26 to 50 nM.

As to `[2H]C([2H])([2H])c1nc(-c2ccc(NC(=O)C(O)c3cccc(C(F)(F)F)c3)c(F)c2F)c2c(N)nc(C)cn12` (stereo not shown) [Example 150, N-[4-[8-amino-6-methyl-3-(trideuteriomethyl)imidazo[1,5-a]pyrazin-1-yl]-2,3-difluoro-phenyl]-2-hydroxy-2-[3-(trifluoromethyl)phenyl]acetamide], the IC50 in test [1] lay within 1 to 25 nM; in test [2], 26 to 50 nM.

Consider `[2H]C([2H])([2H])c1nc(-c2ccc(NC(=O)C(O)c3cccc(F)c3)c(F)c2F)c2c(N)ncc(C(F)(F)F)n12` (stereo not shown) [Example 135, N-[4-[8-amino-3-(trideuteriomethyl)-5-(trifluoromethyl)imidazo[1,5-a]pyrazin-1-yl]-2,3-difluoro-phenyl]-2-(3-fluorophenyl)-2-hydroxy-acetamide], for which the IC50 in test [1] fell in the range of 101 to 250 nM; in test [2], 501 to 1000 nM.

In the case of `[2H]C([2H])([2H])c1nc(-c2ccc(NC(=O)C(O)c3cc(F)cc(F)c3)cc2F)c2c(N)nc(C)cn12` (stereo not shown) [Example 102, N-[4-[8-amino-6-methyl-3-(trideuteriomethyl)imidazo[1,5-a]pyrazin-1-yl]-3-fluoro-phenyl]-2-(3,5-difluoro-phenyl)-2-hydroxy-acetamide], the IC50 in test [1] and in test [2] was 1 to 25 nM throughout.

As for `Cc1cnc(N)c2c(-c3ccc(NC(=O)C(O)c4cccc(F)c4)c(F)c3)nc(C)n12` (stereo not shown) [Example 125, N-(4-(8-amino-3,5-dimethyl-imidazo[1,5-a]pyrazin-1-yl)-2-fluorophenyl)-2-(3-fluorophenyl)-2-hydroxy-acetamide], the IC50 in test [1] and in test [2] was 1 to 25 nM throughout.

For the compound `[2H]C([2H])([2H])c1nc(-c2ccc(NC(=O)C(O)c3cccc(Cl)c3)c(F)c2F)c2c(N)ncc(Cl)n12` (stereo not shown) [Example 145, N-[4-[8-amino-5-chloro-3-(trideuteriomethyl)imidazo[1,5-a]pyrazin-1-yl]-2,3-difluoro-phenyl]-2-(3-chlorophenyl)-2-hydroxy-acetamide], the IC50 in test [1] and in test [2] was 1 to 25 nM throughout.

As for `[2H]C([2H])([2H])c1nc(-c2ccc(NC(=O)C(O)c3cc(F)cc(C(F)(F)F)c3)cc2C)c2c(N)nc(C)cn12` (stereo not shown) [Example 53, N-[4-[8-amino-6-methyl-3-(trideuteriomethyl)imidazo[1,5-a]pyrazin-1-yl]-3-methyl-phenyl]-2-[3-fluoro-5-(trifluoromethyl)phenyl]-2-hydroxy-acetamide], the values for the IC50 in test [1] and in test [2] were 101 to 250 nM and 501 to 1000 nM, respectively.

As for `[2H]C([2H])([2H])c1nc(-c2ccc(NC(=O)C(O)c3cccc(C(F)(F)F)c3)c(F)c2F)c2c(N)ncc(C)n12` (stereo not shown) [Example 147, N-[4-[8-amino-5-methyl-3-(trideuteriomethyl)imidazo[1,5-a]pyrazin-1-yl]-2,3-difluoro-phenyl]-2-hydroxy-2-[3-(trifluoromethyl)phenyl]acetamide], the values for the IC50 in test [1] and in test [2] were 26 to 50 nM and 101 to 250 nM, respectively.

As to `[2H]C([2H])([2H])c1nc(-c2ccc(NC(=O)C(O)c3cccc(F)c3)cc2F)c2c(N)ncc(C(F)(F)F)n12` (stereo not shown) [Example 77, N-[4-[8-amino-3-(trideuteriomethyl)-5-(trifluoromethyl)imidazo[1,5-a]pyrazin-1-yl]-3-fluoro-phenyl]-2-(3-fluorophenyl)-2-hydroxy-acetamide], the values for the IC50 in test [1] and in test [2] were 1 to 25 nM and 51 to 100 nM, respectively.

As for `Cc1cnc(N)c2c(-c3ccc(NC(=O)C(O)c4cccc(F)c4)cc3F)nc(C)n12` (stereo not shown) [Example 71, N-(4-(8-amino-3,5-dimethylimidazo [1,5-a]pyrazin-1-yl)-3-fluorophenyl)-2-(3-fluorophenyl)-2-hydroxy-acetamide], the IC50 in test [1] is 1 to 25 nM; in test [2], 51 to 100 nM.

Values taken from US12331054B2, “Perk inhibiting imidazolopyrazine compounds” (HiberCell, Inc., priority 2019, dated 2025).
